Reference: EP0937460A2, “Use of an antidiarrheal for the manufacture of a medicament for the treatment of inflammatory conditions” (Adolor Corporation, priority 1994, dated 1995)
Where a name gives a salt, the structure may show the parent alone. Read-outs that look alike come from different tables or passages of the source.

Columns and labels:
[1] = system: TNF production; test: Inhibition of TPA-stimulated TNF production in human epidermal keratinocytes (ELISA); assay type: cell-based; conditions: for activity at 10 µM: epidermal keratinocytes, read-out: TNF LEVEL % Control (LPS alone), Ave. ± S.D.
[2] = system: TNF production; test: Inhibition of LPS-stimulated TNF production in the mouse macrophage line RAW 264.7 (ELISA); assay type: cell-based; conditions: for activity at 10 µM: RAW264.7, 6 h, read-out: TNF LEVEL % Control (LPS alone), Ave. ± S.D.
Experimental: Cells were passaged at confluence by scraping and routinely plated at a density of 0.25 x 10^6 and 0.5 x 10^6 cells per T-75 and T-150, respectively.
Typically, RAW cells were plated at 0.25 x 10^6 cells per well of a 24-well plate, in 0.5 mL media per well on the day prior to experimentation. […] 1%. Drugs were co-administered with the stimulant, LPS. After a 6-hr incubation period with LPS ± drug (n = 3-4), the media from the experimental wells was harvested, the cells were removed by microcentrifugation, and the media assayed for TNF by ELISA. Drugs were screened at 10 µM for their ability to alter TNF production by cells stimulated with 1 µg/mL or 10 ng/mL LPS. Dexamethasone, an anti-inflammatory corticosteroid, served as the reference for inhibition of the LPS response.

[3] = system: TNF production; test: Inhibition of LPS-stimulated TNF production in the human monocytic cell line THP-1 (ELISA); assay type: cell-based; conditions: for activity at 10 µM / inhibition at 10 µM: Homo sapiens; for activity at 10 µM: read-out: TNF LEVEL % Control (LPS alone), Ave. ± S.D.; for inhibition at 10 µM: drug 10 µM
Experimental: Cultures were maintained by the addition of fresh growth medium to a T-75 or T-150 flask of cells in suspension, or by pelleting the cells and re-suspending them in the appropriate volume of fresh medium. Maximum cell density was 1.0 x 10^6 cells per mL and cultures were seeded at a minimum density of 0.2 x 10^6 cells per ml.
(§1) THP-1 cells were plated into 24-well plates at a density of 1.0 x 10^6 cells per mL in 0.5 mL medium per well. […] For measurement of IL-1α and IL-1β production, THP-1 cells were incubated with 500 ng/mL or 50 ng/mL LPS and incubated for 16 hours. Levels of secreted cytokine were measured in cell supernatants as for TNF. Cell-associated species were measured in cell lysates which were prepared by repetitive freeze-thawing of cells. For in vitro screening, drugs at 10 µM concentration were co-administered with LPS. […] Drug effects on cell viability were assessed by the MTT assay. […] Water-soluble drugs were dissolved in aqueous solutions such as RPMI or deionized H20. The final concentration of DMSO in the incubation medium was at or below 0.01% and that of ethanol was at or below 0. 1%. The effect on cell viability was evaluated by the MTT assay.

[4] = system: hairless mice
Experimental: In addition to assessing the cytokine mRNA levels, the time course of the TPA-induced increase in skin thickness was also evaluated. This measurement was made with a micrometer using skin excised from euthanized mice. […] Further increases were typically seen 8 hours with this response being maintained through the 24 hour time point.
Three of the mice were euthanized at the 3 hour time point, and the treated sites were analyzed for TNF mRNA by RT-PCR. The fourth mouse was euthanized at a 24 hour time point, and the thickness of the treated areas of skin was measured using a micrometer.
At the 8 hours time point, the mice were euthanized, the treated areas of skin were excised, and the thickness of the skin was measured using a micrometer.

[5] = system: THP-1 cells; test: MTT assay of THP-1 cell viability; conditions: highest dose tested
Experimental: as §1

[6] = Homo sapiens, HEK cells, DRUG [10 µM], stimulation by TPA 10 ng/mL
[7] = Mus musculus, RAW cells, DRUG [10 µM], LPS at 10 ng/mL
[8] = 6 h, THP-1 cells, DRUG [10 µM], LPS 1 µg/mL

Compound: COC(=O)C1=C(C)NC(C)=C(C(=O)OC)C1c1ccccc1[N+](=O)[O-] [Nifedipine]
- activity at 10 µM [1, 6]: 88 ± 40%
- activity at 10 µM [2, 7]: 79 ± 24%
- activity at 10 µM [3, 8]: 119%

Compound: CCOC(=O)C1(c2ccccc2)CCN(CCC(C#N)(c2ccccc2)c2ccccc2)CC1 [Diphenoxylate, diphenoxylate]
- activity at 10 µM ([1]; Homo sapiens): 68 ± 10%

Compound: COCCOC(=O)C1=C(C)NC(C)=C(C(=O)OC(C)C)C1c1cccc([N+](=O)[O-])c1 (stereo not shown) [Nimodipine, nimodipine]
- activity at 10 µM [1, 6]: 15 ± 3%
- activity at 10 µM [2, 7]: 37 ± 3%
- activity at 10 µM [3, 8]: 81 ± 4%

Compound: NCC(O)c1ccc(O)c(O)c1 (stereo not shown) [Arterenol]
- TNF LEVEL % Control (LPS alone); Ave. ± S.D. ([1]; HEK cells, DRUG [10 µM], stimulation by TPA 10 ng/mL): 47±10 % Control
- TNF LEVEL % Control (LPS alone); Ave. ± S.D. ([2]; RAW cells, DRUG [10 µM], LPS at 10 ng/mL): 38±4 % Control
- TNF LEVEL % Control (LPS alone); Ave. ± S.D. ([3]; THP-1 cells, DRUG [10 µM], LPS 1 µg/mL): 1±0.2 % Control

Compound: CN(C)C(=O)C(CCN1CCC(O)(c2ccc(Cl)cc2)CC1)(c1ccccc1)c1ccccc1 [Loperamide, 4-(p-chlorophenyl)-4-hydroxy-N,N-dimethyl-α, α-diphenyl-1-piperidine butyramide HCL]
- effect on TPA-stimulated levels of TNF (in words) ([1]; human keratinocytes, TPA 10 ng/mL, drug 10 µM): very effective
- activity at 10 µM ([2]; Mus musculus): 62 ± 32%
- inhibition at 10 µM ([2]; Mus musculus, RAW264.7, read-out: inhibition of LPS-stimulated TNF secretion): 62%
- effectiveness against LPS-stimulated TNF production (in words) ([2]; RAW cells, drug 10 µM): lowering of TNF levels
- activity at 10 µM ([3]; THP-1, 6 h): 42 ± 22%
- inhibition at 10 µM ([3]; THP-1, read-out: inhibition of TNF production, LPS-stimulated THP-1 cells): ~42%
- skin thickness ([4]; TPA + loperamide 7.5% solution topical, 8 hour, first experiment (vehicle 0.36 mm, TPA 0.56 mm)): 0.39 mm
- skin thickness ([4]; TPA + loperamide topical, second experiment (vehicle 0.39 mm, TPA 0.89 mm), p<0.01 vs. TPA alone): 0.57 mm
- thickness of skin treated with drug alone compared to vehicle-treated skin ([4]; loperamide 7.5% alone, no TPA): unchanged
- inhibition of the TPA-induced swelling response ([4]; loperamide topical, second experiment): 64%
- TPA-induced increase in skin thickness / swelling response (in words) ([4]; topical application, loperamide: 8 hour time point, first experiment): completely inhibit
- THP-1 cell viability (MTT assay) [5]: did not impact

Compound: C[C@@H]1C[C@H]2[C@@H]3CCC4=CC(=O)C=C[C@]4(C)[C@@]3(F)[C@@H](O)C[C@]2(C)[C@@]1(O)C(=O)CO [Dexamethasone, dexamethasone]
- inhibition at 10 µM ([1]; Homo sapiens, Keratinocyte, keratinocytes, TPA 10 ng/mL, drug 10 µM, read-out: inhibition of the response to TPA (TNF production)): > 55%
- activity at 10 µM [1, 6]: 48 ± 12%
- activity at 10 µM [2, 7]: 39 ± 27%
- inhibition of the stimulated production of TNF (decrease of secreted TNF vs LPS alone) ([2]; RAW cells, drug 10 µM, LPS dose not stated): 60%
- activity at 10 µM [3, 8]: 33 ± 14%
- inhibition at 10 µM ([3]; LPS-stimulated THP-1 cells, read-out: inhibition of TNF production): 67%
